According to PubChem BioAssay (NCI):
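Cultured in 96-well plates, cells were exposed to test compound for 48 hours across five concentrations. The concentration for full growth arrest is given as TGI.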 Where a SMILES comes first, the peptide text is derived from it. [ ]: non-standard residue; d: D form. The star is where a group is joined. ξ: configuration not given here. X37 = O=C(OCc1ccccc1)[C@@H]1CCC[C@H]1N*; Fmoc = O=C(OCC1c2ccccc2-c2ccccc21)*; ξW = NC(Cc1c[nH]c2ccccc12)C(=O)O; ξF = NC(Cc1ccccc1)C(=O)O; Boc = CC(C)(C)OC(=O)*; ξK = NCCCCC(N)C(=O)O; ξT = CC(O)C(N)C(=O)O; tBu = CC(C)(C)*

What was measured:
Experiment in all cases: DTP human tumour cell line panel, 48 h
[1] = system: A498 renal
[2] = system: CAKI-1 renal
[3] = system: HOP-92 NSCLC
[4] = system: MDA-MB-435
[5] = system: OVCAR-3 ovarian
[6] = system: SF-268 CNS
[7] = system: SF-295 CNS
[8] = system: SK-MEL-28 melanoma
[9] = system: SN12C renal
[10] = system: TK-10 renal
[11] = system: K-562 leukemia
[12] = system: M14 melanoma
[13] = system: HS 578T breast

| SMILES | TGI [1] [µM] | TGI [2] [µM] | TGI [3] [µM] | TGI [4] [µM] | TGI [5] [µM] | TGI [6] [µM] | TGI [7] [µM] | TGI [8] [µM] | TGI [9] [µM] | TGI [10] [µM] | TGI [11] [µM] | TGI [12] [µM] | TGI [13] [µM] |
| --- | --- | --- | --- | --- | --- | --- | --- | --- | --- | --- | --- | --- | --- |
| N#CC(C(=O)c1ccccc1F)c1nc2cc(C(F)(F)F)ccc2s1 (stereo unspecified) | 45.8 | > 100 | 56.2 | > 100 | 52.7 | > 100 | 73.4 | > 100 | 67.2 | > 100 |  |  |  |
| CC(=O)OC1COC(N2C(=O)C(=O)c3cc(Br)c([N+](=O)[O-])cc32)C(OC(C)=O)C1OC(C)=O (stereo unspecified) |  | > 100 | 93.3 |  | > 100 | > 100 | > 100 | > 100 | > 100 | > 100 | 72.4 | > 100 |  |
| CC(C)=NN/C(=N\S(=O)(=O)c1cc(Cl)c(Oc2ccc([N+](=O)[O-])cc2Cl)c(Cl)c1)Nc1ccc(Cl)cc1 |  | > 100 | > 100 | > 100 | > 100 | > 100 | > 100 | > 100 | > 100 | > 100 | > 100 | > 100 | > 100 |
| CC(=O)OC(C)(C)C1CCC(C)(C(O)COc2ccc(CCNC(=O)c3ccccc3)cc2)O1 (stereo unspecified) |  | > 100 | > 100 |  | > 100 | > 100 | > 100 | > 100 | > 100 | > 100 |  | > 100 |  |
| Cc1ccc(S(=O)/C=C(\NC(=O)OCc2ccccc2)C(F)(F)F)cc1 (stereo unspecified) |  | > 100 | > 100 | > 100 | > 100 |  | > 100 | 72 | > 100 | > 100 | > 100 | > 100 |  |
| CC(=O)NC1C(OCC(=O)NC(C)C(=O)NC(CCC(=O)NCCCCCNc2ccc([N+](=O)[O-])c3[nH]c4ccccc4c(=O)c23)C(N)=O)C(O)C(CO)OC1(C)OCc1ccccc1 (stereo unspecified) | > 50 | > 50 |  | > 50 | > 50 | > 50 | > 50 |  | > 50 | > 50 | > 50 | > 50 | > 50 |
| NS(=O)(=O)c1ccc(CNC(=S)NC(=O)Nc2ccc(Cl)c(Cl)c2)cc1 | 33.5 |  | 52.9 |  |  | 52.8 | 33.2 | 69.8 | 33.3 | > 100 | 39.5 | 35.8 | 38.1 |
| CC1OC(OP(=O)(OCc2ccccc2)OCc2ccccc2)C(OC(=O)c2ccccc2)C(OC(=O)c2ccccc2)C1I (stereo unspecified) |  | > 100 |  |  | > 100 | > 100 | > 100 | > 100 | 52.5 | > 100 | > 100 | > 100 |  |
| CCCCCCc1cc(C=O)sc1-c1ccc(-c2sc(-c3ccc(-c4ccc(-c5cc(CCCCCC)c(-c6ccc(-c7sc(C=O)cc7CCCCCC)s6)s5)s4)s3)cc2CCCCCC)s1 | > 100 | > 100 | > 100 | > 100 | > 100 | > 100 | > 100 | > 100 | > 100 | > 100 | > 100 | > 100 |  |
| CCOC(=O)/C(O)=C(\C=N\C(=S)Nc1ccc(Cl)c(Cl)c1)C(=O)OCC |  | > 100 | > 100 | > 100 | > 100 | > 100 | > 100 | > 100 | > 100 | > 100 |  | > 100 | > 100 |
| CC(C)(C)NCC(O)COc1cccc2[nH]c(C#N)cc12 (stereo unspecified) | > 100 | > 100 |  | > 100 | > 100 | > 100 | > 100 | > 100 | > 100 | > 100 |  | > 100 | > 100 |
| CC1(C(O)c2ccccc2)CN(C(C)(C)C)C(=O)/C1=C\Sc1ccccc1 (stereo unspecified) | > 100 | > 100 | 21.7 | > 100 | > 100 | 43.5 | > 100 | > 100 | > 100 | > 100 | > 100 | > 100 |  |
| CCC1OC2C(CC=C(C)C)=C3OC(C)(O)C(C)(CC)C(O)C3=C3OC(=O)C=C1C32 (stereo unspecified) | > 100 | > 100 | 54.9 | > 100 |  | > 100 | > 100 | > 100 |  | > 100 | > 100 | > 100 |  |
| CC(=O)C1=CC=C/C1=N\Nc1ccccc1 |  | 11.8 | 27.3 | 27.4 | 9.57 | 23.8 | 28.2 | 27 | 22.7 | 18.6 | 20.5 | 22.7 | 34.9 |
| CC(OC(C)(C)C)C(NC(=O)C(CCCCNC(=O)OC(C)(C)C)NC(=O)C(Cc1c[nH]c2ccccc12)NC(=O)C(Cc1ccccc1)NC(=O)OCC1c2ccccc2-c2ccccc21)C(=O)NC(Cc1ccccc1)C(=O)N[C@@H]1CCC[C@H]1C(=O)OCc1ccccc1 (stereo partly specified) (Fmoc-[ξF][ξW][ξK](Boc)[ξT](tBu)[ξF]-X37) |  | > 100 | > 100 | > 100 | > 100 | > 100 | > 100 | > 100 | > 100 | > 100 | > 100 | > 100 | > 100 |
| O=Cc1cc(O)c(O)c(O)c1-c1c(C=O)cc(O)c(O)c1O | > 100 | > 100 |  |  | > 100 | > 100 | > 100 | > 100 | > 100 | > 100 | > 100 | > 100 |  |
| N#Cc1nn(-c2ccc(Cl)cc2)c(N)c2c(=N)n3nc(-c4ccccc4)cc3nc12 | > 56.7 | > 100 |  |  | > 35.5 |  | > 24.5 |  | > 100 | > 100 | > 100 | > 100 |  |
| COc1cccc(-n2nnc3c(N)nc(N)nc32)c1 | > 100 | > 100 | > 100 | > 100 | > 100 | > 100 | > 100 | > 100 | > 100 | > 100 | > 100 | > 100 |  |
